Results on ten compounds are retold here after patent US20070264241A1, “Compounds for Enhanced Cancer Therapy” (priority 2004, published 2007).

Read-outs that look alike come from different tables or passages of the source.

Assay [1] relates to hGBM-1, hGBM-5 and hGBM-14 glioblastoma cultures. The assay is described as follows: MTT assay of cell viability and proliferation in primary glioblastoma cultures. Conditions: hGBM-1, hGBM-5, hGBM-14; 24 hours (FIG. 2). It is filed as cell-based, human. As for the experimental part: Proliferation of cultured glioma cells was assessed by 3-(4,5-dimethylthiazol-2-yl)-2,5-diphenyltetrazolium bromide (MTT, Sigma) assay. MTT tetrazolium salt was dissolved in serum-free culture medium (0.5 mg/ml), added to the cells (150 μl/well) and incubated for 30 min at 37° C. Formazan dye, formed by viable cells, was solubilized in 300 μl of isopropanol. Aliquots (100 μl) of the solutions were transferred to 96-well microplates. The absorbance at 570 nm (with reference at 650 nm) was measured using a microtiter plate spectrophotometer (Anthos HT III). The results were expressed as percentage of viablecells compared to the control sample of untreated cells (100%).
In general terms: Tetrazolium dyes change colour on reduction, which living cells bring about.

Another assay relates to U343MG cells. As to the kind of experiment: XTT cytotoxicity assay of nucleoside analogues with or without phenylbutyrate pre-incubation. It is filed as cell-based, human. Conditions: for IC50: 120 hours drug exposure, combinations: 24 h pre-incubation with 3.16 mM phenylbutyrate. The protocol:
(§1) Cells were seeded at a density of 1.000-2.000 cells/well in 96-well plates. […] Plated incubated for 24 hours (37° C., 5% CO2) where after media was discarded and replaced by media conditioned with various concentrations of nucleoside analogs (e.g. AZT), 200 μl/well. After 120 hours of drug exposure the experiments were terminated. Cell proliferation/cytotoxicity was assessed by adding the colour generating substrates of the Cell Proliferation kit II (XTT) from Roche (Cat. No. 1465015) and measuring absorbance at 450 nm and 690 nm with a Thermo Labsystems Multiscan Ascent reader. The data was corrected for background media-only absorbance where after the 50% growth inhibitory concentration—IC50 (the dose that inhibits cell growth by 50%) was calculated for each treatment. Cells were seeded at a density of 1.000-2.000 cells/well in PLL coated 96-well plates. […] Plated incubated for 24 hours (37° C., 5% CO2) where after media was discarded and replaced by media conditioned with various concentrations of nucleoside analogs; AZT (Sigma # A2169), AraC (Sigma # C6645), Cladribine (CdA) (Sigma #C4438), Gancidovir (GCV) (Sigma # G2536) and Gemcitabine (Orifarm), 200 μl/well. After 120 hours of drug exposure the experiments were terminated. Cell proliferation/cytotoxicity was assessed by adding the colour generating substrates of the Cell Proliferation kit II (XTT) from Roche (Cat. No. 1465015) and measuring absorbance at 450 nm and 690 nm with a Thermo Labsystems Multiscan Ascent reader. he data was corrected for background media-only absorbance where after the 50% growth inhibitory concentration—IC50 (the dose that inhibits cell growth by 50%) was calculated for ach treatment.

The test system of the next assay is CL2:6 cells. Described as above. It counts as cell-based. To be noted: 120 hours drug exposure; for IC50: combinations: 24 h pre-incubation with 3.16 mM phenylbutyrate; for sensitivity improvement/increase by phenylbutyrate pre-incubation: CL2:6 pre-incubated 24 h with phenylbutyrate. The protocol: as §1
The subject of another assay is U87MG cells. As to the kind of experiment: XTT cytotoxicity assay of phenylbutyrate and of nucleoside analogues with or without phenylbutyrate pre-incubation. It counts as cell-based, human. To be noted: 120 hours drug exposure; for IC50: combinations: 24 h pre-incubation with 3.16 mM phenylbutyrate, read-out: IC50 U87MG; for sensitivity increase by phenylbutyrate pre-incubation: U87MG pre-incubated 24 h with phenylbutyrate. As for the experimental part:
Briefly, cells were harvested by trypsinzation, stained by Tryphan Blue for cell viability counting, seeded in triplicate in 96-well plates (1.000-2.000 cells/well) where after media conditioned with a fixed concentration of phenyl butyrate (3.16 mM) were added to the plates followed by incubation for 24 hours at 37° C. and 5% CO2. Cell proliferation/cytotoxicity was assessed by adding the colour generating substrates of the Cell Proliferation kit II (XTT) from Roche (Cat. No. 1465015) and measuring absorbance at 450 nm and 690 nm with a Thermo Labsystems Multiscan Ascent reader.
Cells were seeded at a density of 1.000-2.000 cells/well in 96-well plates. Cells were pre-incubated with 4-phenyl butyrate for 24 hours prior to drug exposure by adding media conditioned with phenyl butyrate at a fixed concentration (3.16 mM). Plated incubated for 24 hours (37° C., 5% CO2) where after media was discarded and replaced by media conditioned with various concentrations of nucleoside analogs (e.g. AZT), 200 μl/well. After 120 hours of drug exposure the experiments were terminated. Cell proliferation/cytotoxicity was assessed by adding the colour generating substrates of the Cell Proliferation kit II (XTT) from Roche (Cat. No. 1465015) and measuring absorbance at 450 nm and 690 nm with a Thermo Labsystems Multiscan Ascent reader.
The data was corrected for background media-only absorbance where after the 50% growth inhibitory concentration—IC50 (the dose that inhibits cell growth by 50%) was calculated for each treatment.
Briefly, cells were harvested by trypsinzation, stained by Tryphan Blue (Cambrex) for cell viability counting, seeded in triplicate in poly-L-lysine (PLL) (Sigma # P6282) coated 96-well plates (1.000-2.000 cells/well) where after media conditioned with a fixed concentration of phenyl butyrate (3.16 mM) was added to the plates followed by incubation for 24 hours at 37° C. and 5% CO2. Cell proliferation/cytotoxicity was assessed by adding the colour generating substrates of the
Cells were seeded at a density of 1.000-2.000 cells/well in PLL coated 96-well plates. Cells were pre-incubated with 4-phenyl butyrate for 24 hours prior to drug exposure by adding media conditioned with phenyl butyrate at a fixed concentration (3.16 mM). Plated incubated for 24 hours (37° C., 5% CO2) where after media was discarded and replaced by media conditioned with various concentrations of nucleoside analogs; AZT (Sigma # A2169), AraC (Sigma # C6645), Cladribine (CdA) (Sigma #C4438), Gancidovir (GCV) (Sigma # G2536) and Gemcitabine (Orifarm), 200 μl/well. After 120 hours of drug exposure the experiments were terminated. Cell proliferation/cytotoxicity was assessed by adding the colour generating substrates of the Cell Proliferation kit II (XTT) from Roche (Cat. No. 1465015) and measuring absorbance at 450 nm and 690 nm with a Thermo Labsystems Multiscan Ascent reader. he data was corrected for background media-only absorbance where after the 50% growth inhibitory concentration—IC50 (the dose that inhibits cell growth by 50%) was calculated for ach treatment.

Assay [2] concerns gap junction communication between S6 and RFP cells. As to the kind of experiment: Fluorescent dye transfer between glioma cells (S6 to RFP). To be noted: unlabeled recipient cells. It counts as cell-based, Rat. The protocol:
S6 and RFP cells were plated each in two separate dishes with one dish of each cell type treated either with AGA or DMSO. S6 cells of both dishes were incubated with Calcein-AM and Dil. Cells were trypsinized and 85% RFP cells were mixed with 15% S6 cells and mixtures were co-cultured in two dishes where one contained cells pretreated with AGA (right panel). After 2.5 hours cells were incubated with Hoechst nuclear stain and Calcein-AM dye transfer from S6 cells to RFP cells was monitored.
Glioblastoma cells were cultured on 35 mm petri dishes and in vitro labelled with 5 μM calcein-AM (acetomethylic ester) and 10 μM Dil (Molecular Probes) diluted in supplemented serum free medium DMEM/F12 and incubated for 30 min at 37° C. The cells were washed once with the same medium, trypsinized and suspended in the culture medium induding 10% FBS. The cells were pelleted by centrifugation at 1600 rpm for 1 minute and resuspended in fresh culture medium. The procedure was repeated twice. Following the second resuspension, the labelled cells were plated on top of unlabelled cells of the same origin. These cells were either pretreated with 4-PB at a concentration of 5 mM, or non-treated serving as a control. The labeled cells were then allowed to settle for 1 hour, followed by analyses using epifluorescence detection microscopy every 30 minutes for up to 6 hours. […]

Assay [3] has as its system glioma cells expressing HSV-TK (S6) mixed with RFP cells. The assay is described as follows: Gap junction mediated cell death (bystander effect), MTT ratio A1:RFP/S6:RFP. It is filed as cell-based, Rat. Conditions: added to ganciclovir and 4-PB treatment. As for the experimental part:
Mixtures of cell dones were treated with drugs as indicated. After 96 h (grey bar), 120 h (white bar) and 168 h (black bar) MTT tests from three samples were performed. The ratios of the MTT tests from TK negative and TK positve mixtures (A1:RFP/S6:RFP) are shown.
Glioma cells with stable expression of green fluorescent protein (EGFP) and the herpes simplex virus thymidine kinase expressing gene HSV-TK in sense (S6) or in antisense (A1) were mixed with cells stably expressing the red fluorescent protein (RFP) (ratio 3:7 S6:RFP or A1:RFP). Ganciclovir, 4-phenylbutyrate and AGA were added 3 hrs after seeding the cells, except for AGA, which was added directly at seeding of cells. After 48 hours, cells were split and after 96, 120 and 168 hrs one each of the cell culture quadruplicates was used for MTT-test while one sample was employed for FACS analysis. After 144 h cells from the third of the quadruplicate were split again and the last quadruplicate sample was analyzed the following day (168 h).
Proliferation of cultured glioma cells was assessed by 3-(4,5-dimethylthiazol-2-yl)-2,5-diphenyltetrazolium bromide (MTT, Sigma) assay. […] The absorbance at 570 nm (with reference at 650 nm) was measured using a microtiter plate spectrophotometer (Anthos HT III). The results were expressed as percentage of viable cells compared to the control sample of untreated cells (100%).

In assay [4] the test system is U87MG cells expressing tomato thymidine kinase. As to the kind of experiment: Cell killing effect of AZT, XTT assay, tomato thymidine kinase transduced cells. It counts as cell-based, human. Conditions: for IC50: U87MG tomato TK.
Another assay has as its system U87MG wt cells. As to the kind of experiment: Cell killing effect of AZT, XTT assay, non-transduced cells. It is filed as cell-based, human. Conditions: 120 hours. The protocol: Exponentially growing U87 wt and tomato kinase expressing cells were plated at a density of 2.000 cells/well in poly-L-lysine coated 96-well plates in 100 μl conditioned medium and incubated 37° C. in a humidified incubator with a gas phase of 5% CO2. After 24 hours, medium was replaced with medium containing varying concentrations of AZT. Hereafter, cells were exposed to drug conditioned media for 120 constitutive hours. The chemo resistance of cultured cells was monitored by the surviving cell fraction as a function of the drug concentration. Viability of cells was determined via the colorimetric XTT assay (XTT kit II—Roche, cat no. 1465015). Briefly, cell media was carefully removed and 100 μl fresh media and 50 μl XTT mix was added to each well. The absorbance at 450 and 690 nm was determined using an ELISA plate reader (Ascent, ThermoLab). The IC50 value (50% inhibition concentration) of the investigated compound was calculated as the mean value of each experiment using SigmaPlot® (Dyrberg Trading, DK).

Turning to `CC(/C=C/C(=O)NO)=C\[C@@H](C)C(=O)c1ccc(N(C)C)cc1` [Trichostatin A], the “antiproliferative potency compared with 4-PB (MTT)” value in assay [1] is listed as “less potent”.
`O=C1CCc2c(ccc3ccccc23)O1` [Splitomicin, splitomicin]: the “antiproliferative potency compared with 4-PB (MTT)” value in assay [1] is “less potent”.
For the compound `Nc1nc(O)c2ncn(COC(CO)CO)c2n1` [GCV, 9-[2-hydroxy-1-(hydroxymethyl)ethoxyl-methyl]-guanosine], the IC50 in the assay with U343MG cells (Homo sapiens, U-343MG) came to 104 µM. In addition, in the assay with CL2:6 cells, the IC50 turned out to be 3360 µM and the “sensitivity improvement/increase by phenylbutyrate pre-incubation” value was 1.4 times.
As for `Nc1nc(Cl)nc2c1ncn2[C@H]1C[C@H](O)[C@@H](CO)O1` [CdA, 2-chloro-2′-deoxyadenosine], the IC50 in the assay with U87MG cells (Homo sapiens, U-87 MG) amounted to 5.74 µM. For the same compound, the “sensitivity increase by phenylbutyrate pre-incubation” value in the assay on U87MG cells is 2.3 times.
On to `CCCC(CCC)C(=O)O` [valproic acid], for which the “antiproliferative potency compared with 4-PB (MTT)” value in assay [1] is listed as “less potent”.
Take `Nc1ccn([C@@H]2O[C@H](CO)[C@@H](O)C2(F)F)c(=O)n1` [Gemcitabine, 2′,2′-difluorodeoxycytidine]: the IC50 in the assay with U87MG cells (Homo sapiens, U-87 MG) came out at 0.248 µM. Moreover, in the assay with U87MG cells, the “sensitivity increase by phenylbutyrate pre-incubation” value was 7.8 times.
Turning to `Nc1ccn([C@@H]2O[C@H](CO)[C@@H](O)[C@@H]2O)c(=O)n1` [AraC, cytidine-arabinoside], in the assay on U87MG cells, the IC50 worked out at 4340 µM and the “sensitivity increase by phenylbutyrate pre-incubation” value came out at 3.5 times.
As to `CC1(C)[C@@H](O)CC[C@]2(C)[C@H]3C(=O)C=C4[C@H]5C[C@@](C)(C(=O)O)CC[C@]5(C)CC[C@@]4(C)[C@]3(C)CC[C@@H]12` [AGA, 18α glycyrrhethinic acid], the “calcein transfer from Dil-positive donor cells” value in assay [2] is given as “inhibited”. Also, the “bystander killing effect upon addition of gap junction inhibitor” value in assay [3] is reported as “reduced”.
In the case of `CCCC(=O)[O-].[Na+]` [sodium butyrate], in assay [1], the “antiproliferative potency compared with 4-PB (MTT)” value is listed as “less potent”.
`Cc1cn([C@H]2C[C@H](N=[N+]=[N-])[C@@H](CO)O2)c(=O)[nH]c1=O` [AZT, 3′-azido-3′-thymidine]: the IC50 with U87MG cells was 6000 µM; in assay [4] (120 hours, read-out: IC50 for tomato TK transduced cells), 14.8 µM; in assay [4] (read-out: IC50 measured in FIG. 15B, approximate), roughly 15 µM; in the assay on U343MG cells, 56 µM; in the assay with U87MG wt cells, 7430 µM; with CL2:6 cells, 573 µM. Besides, the “sensitivity increase of tomato TK expressing U87 cells compared to wt U87MG” value in assay [4] came out at 500 fold. Also, in the assay on U343MG cells (U343MG pre-incubated 24 h with phenylbutyrate), the “sensitivity improvement by phenylbutyrate pre-incubation” value amounted to 4.2 times. For the same compound, the “sensitivity improvement/increase by phenylbutyrate pre-incubation” value in the assay with CL2:6 cells came to 1.7 times.

For orientation: IC50 means the point on the concentration scale where inhibition reaches its midpoint.
